Test results as given in patent US8129371B2, “Thienopyrimidine and pyrazolopyrimidine compounds and their use as mTOR kinase and PI3 kinase inhibitors” (Wyeth LLC, priority 2007, dated 2012).

Assays:
PI3K [1] = target: T1, PI3K (Homo sapiens, UniProt P42336); assay: Fluorescence polarization assay for PI3K; assay type: biochemical; settings: PI3 Kinase α isoform, fluorescence polarization; read-out: PI3 Kinase α IC50
T1 construct: PI3 Kinase α IC50; other: PI3 Kinase α; other: PI3 Kinase α isoform, fluorescence polarization
In short: (§1)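 PI3K was preincubated with compound (final DMSO 1%), and the reaction was started with PIP2/ATP substrate and run 30–60 min. It was stopped with a detector mix giving 10 nM red probe and 70 nM GST-GRP.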

PI3K [2] = target: T2, PI3K (Homo sapiens, UniProt P48736); assay: Fluorescence polarization assay for PI3K; assay type: biochemical; settings: PI3 Kinase γ isoform, fluorescence polarization; read-out: PI3 Kinase γ IC50
T2 construct: PI3 Kinase γ IC50; other: PI3 Kinase γ; other: PI3 Kinase γ isoform, fluorescence polarization
In short: as §1

prostate line LNCap = assay: In vitro cell culture growth assay (MTS), LNCap; assay type: cell-based; settings: Homo sapiens, LNCaP, 72 h, LNCap cells, three days after drug treatment
In short: (§2)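 The readout was MTS dye metabolism at 490 nm, taken after 3-day drug exposure that began the day after seeding. Growth was expressed as percent of vehicle-treated wells in the same plate.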

Human mTOR (FLAG-TOR) = target: T3, Human mTOR (FLAG-TOR) (Homo sapiens, UniProt P42345); assay: Human mTOR kinase assay with purified enzyme, DELFIA format; assay type: biochemical; settings: purified human mTOR enzyme, DELFIA format
T3 construct: FLAG
In short: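 Purified FLAG-mTOR in HEPES pH 7.4 buffer with 10 mM MnCl2 was preincubated with inhibitor and reacted 2 h at room temperature with His6-S6K substrate, then stopped with EDTA/EGTA. Phospho-T389 S6K detected by DELFIA with Eu-labelled antibody (40 ng/mL) after plate capture; inhibition computed from signal.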

breast line MDA468 = assay: In vitro cell culture growth assay (MTS), MDA468; assay type: cell-based; settings: Homo sapiens, 72 h, MDA468 cells, three days after drug treatment
In short: as §2

T2 sequence (P48736 whole entry, canonical isoform): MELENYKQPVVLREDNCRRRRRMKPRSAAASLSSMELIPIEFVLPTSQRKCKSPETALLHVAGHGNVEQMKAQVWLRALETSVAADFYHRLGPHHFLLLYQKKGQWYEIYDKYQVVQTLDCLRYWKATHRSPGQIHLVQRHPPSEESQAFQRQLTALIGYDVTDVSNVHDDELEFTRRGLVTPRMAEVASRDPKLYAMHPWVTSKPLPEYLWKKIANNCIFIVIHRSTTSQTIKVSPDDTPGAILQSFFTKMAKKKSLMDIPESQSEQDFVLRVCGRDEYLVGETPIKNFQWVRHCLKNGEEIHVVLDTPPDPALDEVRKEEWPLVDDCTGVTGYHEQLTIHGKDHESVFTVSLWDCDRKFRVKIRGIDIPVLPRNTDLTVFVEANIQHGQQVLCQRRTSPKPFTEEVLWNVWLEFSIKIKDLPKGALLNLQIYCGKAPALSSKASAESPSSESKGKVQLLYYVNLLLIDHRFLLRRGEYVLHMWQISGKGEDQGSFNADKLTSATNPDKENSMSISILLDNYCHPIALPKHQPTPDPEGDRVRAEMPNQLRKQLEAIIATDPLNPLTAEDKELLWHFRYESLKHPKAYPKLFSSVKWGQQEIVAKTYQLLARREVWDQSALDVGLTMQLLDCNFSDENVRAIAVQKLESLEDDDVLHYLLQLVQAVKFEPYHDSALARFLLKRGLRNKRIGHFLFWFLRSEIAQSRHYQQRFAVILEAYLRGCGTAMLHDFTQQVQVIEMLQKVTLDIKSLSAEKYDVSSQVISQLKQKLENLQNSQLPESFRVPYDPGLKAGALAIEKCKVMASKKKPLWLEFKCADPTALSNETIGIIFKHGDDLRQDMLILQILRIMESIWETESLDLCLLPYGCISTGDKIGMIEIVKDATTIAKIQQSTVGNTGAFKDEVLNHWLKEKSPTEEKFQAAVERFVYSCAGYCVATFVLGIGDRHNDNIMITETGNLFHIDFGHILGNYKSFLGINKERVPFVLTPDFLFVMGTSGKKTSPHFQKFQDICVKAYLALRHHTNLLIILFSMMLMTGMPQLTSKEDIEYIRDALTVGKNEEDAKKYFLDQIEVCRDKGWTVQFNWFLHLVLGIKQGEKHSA
T1 sequence (P42336 whole entry, canonical isoform): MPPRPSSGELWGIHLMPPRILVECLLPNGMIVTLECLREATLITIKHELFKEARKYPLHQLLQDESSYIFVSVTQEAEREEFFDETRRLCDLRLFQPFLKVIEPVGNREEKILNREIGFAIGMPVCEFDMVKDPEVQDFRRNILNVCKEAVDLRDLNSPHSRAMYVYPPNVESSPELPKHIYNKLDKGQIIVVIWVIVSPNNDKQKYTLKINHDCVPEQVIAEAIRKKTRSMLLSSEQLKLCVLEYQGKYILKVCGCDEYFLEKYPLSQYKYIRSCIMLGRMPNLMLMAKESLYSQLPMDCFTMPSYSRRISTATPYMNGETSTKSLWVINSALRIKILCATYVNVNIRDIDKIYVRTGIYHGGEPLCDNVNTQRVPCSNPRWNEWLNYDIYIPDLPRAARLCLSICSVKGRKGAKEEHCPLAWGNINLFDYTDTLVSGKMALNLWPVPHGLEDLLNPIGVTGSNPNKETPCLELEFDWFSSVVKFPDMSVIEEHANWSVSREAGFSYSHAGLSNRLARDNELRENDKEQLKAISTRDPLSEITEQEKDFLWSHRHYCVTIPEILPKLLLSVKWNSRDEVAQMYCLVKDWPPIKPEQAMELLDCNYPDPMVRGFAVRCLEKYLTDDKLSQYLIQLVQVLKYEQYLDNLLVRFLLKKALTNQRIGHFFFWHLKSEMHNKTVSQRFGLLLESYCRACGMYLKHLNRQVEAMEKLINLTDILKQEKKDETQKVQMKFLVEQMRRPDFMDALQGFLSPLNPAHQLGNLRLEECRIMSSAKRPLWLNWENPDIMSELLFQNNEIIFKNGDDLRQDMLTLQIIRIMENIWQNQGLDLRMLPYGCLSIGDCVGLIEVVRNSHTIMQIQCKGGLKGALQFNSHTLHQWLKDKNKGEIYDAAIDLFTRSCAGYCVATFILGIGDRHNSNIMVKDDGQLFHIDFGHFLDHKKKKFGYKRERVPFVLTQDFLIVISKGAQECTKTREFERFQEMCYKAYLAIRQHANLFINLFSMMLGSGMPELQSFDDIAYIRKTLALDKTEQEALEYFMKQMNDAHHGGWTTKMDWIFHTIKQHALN

O=C(Nc1ccc(-c2nc(N3CC4CCC(C3)O4)c3sccc3n2)cc1)Nc1cccnc1 [Example 412, 1-{4-[4-(8-oxa-3-azabicyclo[3.2.1]oct-3-yl)thieno[3,2-d]pyrimidin-2-yl]phenyl}-3-pyridin-3-ylurea]
IC50 (PI3K [1]): 119 nM | IC50 (PI3K [2]): 2360 nM | IC50 (prostate line LNCap): 27 nM | IC50 (Human mTOR (FLAG-TOR)): 0.28 nM | IC50 (breast line MDA468): 72 nM

O=C(Nc1ccncc1)Nc1ccc(-c2nc(N3CC4CCC(C3)O4)c3sccc3n2)cc1 [Example 413, 1-{4-[4-(8-oxa-3-azabicyclo[3.2.1]oct-3-yl)thieno[3,2-d]pyrimidin-2-yl]phenyl}-3-pyridin-4-ylurea]
IC50 (PI3K [1]): 80 nM | IC50 (PI3K [2]): 1380 nM | IC50 (prostate line LNCap): 10 nM | IC50 (Human mTOR (FLAG-TOR)): 0.39 nM | IC50 (breast line MDA468): 48 nM

CC(=O)Nc1ccc(-c2nc(N3CC4CCC(C3)O4)c3sccc3n2)cc1 [Example 415, N-{4-[4-(8-oxa-3-azabicyclo[3.2.1]oct-3-yl)thieno[3,2-d]pyrimidin-2-yl]phenyl}acetamide]
IC50 (PI3K [1]): 4370 nM | IC50 (PI3K [2]): > 10000 nM | IC50 (prostate line LNCap): 1700 nM | IC50 (Human mTOR (FLAG-TOR)): 26 nM | IC50 (breast line MDA468): 8500 nM

COC(=O)Nc1ccc(-c2nc(N3CC4CCC(C3)O4)c3sccc3n2)cc1 [Example 416, methyl {4-[4-(8-oxa-3-azabicyclo[3.2.1]oct-3-yl)thieno[3,2-d]pyrimidin-2-yl]phenyl}carbamate]
IC50 (PI3K [1]): 6200 nM | IC50 (PI3K [2]): > 10000 nM | IC50 (prostate line LNCap): 1850 nM | IC50 (Human mTOR (FLAG-TOR)): 8.6 nM | IC50 (breast line MDA468): 9100 nM

c1cc2cc(-c3nc(N4CC5CCC(C4)O5)c4sccc4n3)ccc2[nH]1 [Example 419, 2-(1H-indol-5-yl)-4-(8-oxa-3-azabicyclo[3.2.1]oct-3-yl)thieno[3,2-d]pyrimidine]
IC50 (PI3K [1]): 8620 nM | IC50 (PI3K [2]): > 10000 nM | IC50 (prostate line LNCap): 1350 nM | IC50 (Human mTOR (FLAG-TOR)): 22 nM | IC50 (breast line MDA468): 7900 nM

Nc1ccc(-c2nc(N3CC4CCC(C3)O4)c3sccc3n2)cn1 [Example 420, 5-[4-(8-oxa-3-azabicyclo[3.2.1]oct-3-yl)thieno[3,2-d]pyrimidin-2-yl]pyridin-2-amine]
IC50 (PI3K [1]): 1770 nM | IC50 (PI3K [2]): > 10000 nM | IC50 (prostate line LNCap): 1250 nM | IC50 (Human mTOR (FLAG-TOR)): 32 nM | IC50 (breast line MDA468): 4800 nM

Nc1ncc(-c2nc(N3CC4CCC(C3)O4)c3sccc3n2)cn1 [Example 421, 5-[4-(8-oxa-3-azabicyclo[3.2.1]oct-3-yl)thieno[3,2-d]pyrimidin-2-yl]pyrimidin-2-amine]
IC50 (PI3K [1]): 246 nM | IC50 (PI3K [2]): 9180 nM | IC50 (prostate line LNCap): 1200 nM | IC50 (Human mTOR (FLAG-TOR)): 51 nM | IC50 (breast line MDA468): 3900 nM

Oc1ccc(Nc2nc(N3CC4CCC(C3)O4)c3sccc3n2)cc1 [Example 422, 4-{[4-(8-oxa-3-azabicyclo[3.2.1]oct-3-yl)thieno[3,2-d]pyrimidin-2-yl]amino}phenol]
IC50 (PI3K [1]): 4430 nM | IC50 (PI3K [2]): > 10000 nM | IC50 (prostate line LNCap): 7200 nM | IC50 (Human mTOR (FLAG-TOR)): 270 nM | IC50 (breast line MDA468): 31000 nM

CN1CCN(Cc2cc3nc(-c4ccc(NC(=O)NC5CC5)cc4)nc(N4CC5CCC(C4)O5)c3s2)CC1 [Example 424, 1-cyclopropyl-3-(4-{6-[(4-methylpiperazin-1-yl)methyl]-4-(8-oxa-3-azabicyclo[3.2.1]oct-3-yl)thieno[3,2-d]pyrimidin-2-yl}phenyl)urea]
IC50 (PI3K [1]): 874 nM | IC50 (PI3K [2]): 3670 nM | IC50 (prostate line LNCap): 400 nM | IC50 (Human mTOR (FLAG-TOR)): 15.5 nM | IC50 (breast line MDA468): 2000 nM

CN1CCN(Cc2cc3nc(-c4ccc(NC(=O)NN(C)C)cc4)nc(N4CC5CCC(C4)O5)c3s2)CC1 [Example 425, 2,2-dimethyl-N-(4-{6-[(4-methylpiperazin-1-yl)methyl]-4-(8-oxa-3-azabicyclo[3.2.1]oct-3-yl)thieno[3,2-d]pyrimidin-2-yl}phenyl)hydrazinecarboxamide]
IC50 (PI3K [1]): 5530 nM | IC50 (PI3K [2]): > 10000 nM | IC50 (prostate line LNCap): 19000 nM | IC50 (Human mTOR (FLAG-TOR)): 545 nM | IC50 (breast line MDA468): 23000 nM

CN1CCN(Cc2cc3nc(-c4ccc(NC(=O)Nc5cccnc5)cc4)nc(N4CC5CCC(C4)O5)c3s2)CC1 [Example 426, 1-(4-{6-[(4-methylpiperazin-1-yl)methyl]-4-(8-oxa-3-azabicyclo[3.2.1]oct-3-yl)thieno[3,2-d]pyrimidin-2-yl}phenyl)-3-pyridin-3-ylurea]
IC50 (PI3K [1]): 148 nM | IC50 (PI3K [2]): 2610 nM | IC50 (prostate line LNCap): 180 nM | IC50 (Human mTOR (FLAG-TOR)): 4.7 nM | IC50 (breast line MDA468): 380 nM

CN1CCN(Cc2cc3nc(-c4ccc(NC(=O)Nc5ccncc5)cc4)nc(N4CC5CCC(C4)O5)c3s2)CC1 [Example 427, 1-(4-{6-[(4-methylpiperazin-1-yl)methyl]-4-(8-oxa-3-azabicyclo[3.2.1]oct-3-yl)thieno[3,2-d]pyrimidin-2-yl}phenyl)-3-pyridin-4-ylurea]
IC50 (PI3K [1]): 86 nM | IC50 (PI3K [2]): 1270 nM | IC50 (prostate line LNCap): 200 nM | IC50 (Human mTOR (FLAG-TOR)): 3.7 nM | IC50 (breast line MDA468): 390 nM

CN1CCN(Cc2cc3nc(-c4ccc(NC(=O)Nc5ccc(C(N)=O)cc5)cc4)nc(N4CC5CCC(C4)O5)c3s2)CC1 [Example 428, 4-{[(4-{6-[(4-methylpiperazin-1-yl)methyl]-4-(8-oxa-3-azabicyclo[3.2.1]oct-3-yl)thieno[3,2-d]pyrimidin-2-yl}phenyl)carbamoyl]amino}benzamide]
IC50 (PI3K [1]): 34 nM | IC50 (PI3K [2]): 815 nM | IC50 (prostate line LNCap): 240 nM | IC50 (Human mTOR (FLAG-TOR)): 1.5 nM | IC50 (breast line MDA468): 110 nM

CNC(=O)Nc1ccc(-c2nc(N3CC4CCC(C3)O4)c3sc(CN4CCN(S(C)(=O)=O)CC4)cc3n2)cc1 [Example 429, 1-methyl-3-{4-[6-{[4-(methylsulfonyl)piperazin-1-yl]methyl}-4-(8-oxa-3-azabicyclo[3.2.1]oct-3-yl)thieno[3,2-d]pyrimidin-2-yl]phenyl}urea]
IC50 (PI3K [1]): 46 nM | IC50 (PI3K [2]): 3710 nM | IC50 (prostate line LNCap): 120 nM | IC50 (Human mTOR (FLAG-TOR)): 1.41 nM | IC50 (breast line MDA468): 90 nM

CCNC(=O)Nc1ccc(-c2nc(N3CC4CCC(C3)O4)c3sc(CN4CCN(S(C)(=O)=O)CC4)cc3n2)cc1 [Example 430, 1-ethyl-3-{4-[6-{[4-(methylsulfonyl)piperazin-1-yl]methyl}-4-(8-oxa-3-azabicyclo[3.2.1]oct-3-yl)thieno[3,2-d]pyrimidin-2-yl]phenyl}urea]
IC50 (PI3K [1]): 113 nM | IC50 (PI3K [2]): 1630 nM | IC50 (prostate line LNCap): 36 nM | IC50 (Human mTOR (FLAG-TOR)): 1.29 nM | IC50 (breast line MDA468): 90 nM

CS(=O)(=O)N1CCN(Cc2cc3nc(-c4ccc(NC(=O)NC5CC5)cc4)nc(N4CC5CCC(C4)O5)c3s2)CC1 [Example 431, 1-cyclopropyl-3-{4-[6-{[4-(methylsulfonyl)piperazin-1-yl]methyl}-4-(8-oxa-3-azabicyclo[3.2.1]oct-3-yl)thieno[3,2-d]pyrimidin-2-yl]phenyl}urea]
IC50 (PI3K [1]): 179 nM | IC50 (PI3K [2]): 1530 nM | IC50 (prostate line LNCap): 32 nM | IC50 (Human mTOR (FLAG-TOR)): 1.01 nM | IC50 (breast line MDA468): 200 nM

CS(=O)(=O)N1CCN(Cc2cc3nc(-c4ccc(NC(=O)Nc5ccccc5)cc4)nc(N4CC5CCC(C4)O5)c3s2)CC1 [Example 432, 1-{4-[6-{[4-(methylsulfonyl)piperazin-1-yl]methyl}-4-(8-oxa-3-azabicyclo[3.2.1]oct-3-yl)thieno[3,2-d]pyrimidin-2-yl]phenyl}-3-phenylurea]
IC50 (PI3K [1]): 6 nM | IC50 (PI3K [2]): 522 nM | IC50 (prostate line LNCap): 4 nM | IC50 (Human mTOR (FLAG-TOR)): 1.3 nM | IC50 (breast line MDA468): 37 nM

CS(=O)(=O)N1CCN(Cc2cc3nc(-c4ccc(NC(=O)Nc5ccncc5)cc4)nc(N4CC5CCC(C4)O5)c3s2)CC1 [Example 434, 1-{4-[6-{[4-(methylsulfonyl)piperazin-1-yl]methyl}-4-(8-oxa-3-azabicyclo[3.2.1]oct-3-yl)thieno[3,2-d]pyrimidin-2-yl]phenyl}-3-pyridin-4-ylurea]
IC50 (PI3K [1]): 8 nM | IC50 (PI3K [2]): 330 nM | IC50 (prostate line LNCap): 120 nM | IC50 (Human mTOR (FLAG-TOR)): 0.445 nM | IC50 (breast line MDA468): 180 nM
